32 molecules from BindingDB's records for doi:10.1021/jm00089a021 (Tanabe Seiyaku, 1992) can be followed below.

For orientation: IC50 means the midpoint of a concentration-inhibition curve.

For the test, the target named is Aldose reductase (Oryctolagus cuniculus). Put plainly: Tested in vitro for inhibitory activity against partially purified aldose reductase from male rabbit lens.
`CN1C(=O)Nc2cc(Cl)ccc2C12NC(=O)NC2=O` (configuration not stated) displayed an IC50 of 94 nM. In other words, the double-digit nanomolar range.
Molecule `CCN1C(=O)Nc2ccccc2C12NC(=O)NC2=O` (configuration not stated) yielded an IC50 of 1000 nM.
As for `CN1C(=O)N(C)C2(C1=O)c1ccccc1NC(=O)N2C` (configuration not stated), the figure is over 10000 nM.
In turn, `CN1C(=O)Nc2ccc(Br)cc2C12NC(=O)NC2=O` (configuration not stated) displayed a concentration for half-maximal inhibition (IC50) of 52 nM.
In turn, `Cc1ccc2c(c1)NC(=O)N(C)C21NC(=O)NC1=O` (configuration not stated) returned an IC50 of 220 nM. This IC50 lies about 4.2-fold higher than the previous one.
Molecule `O=C1NC(=O)C2(N1)NC(=O)Nc1ccccc12` (configuration not stated) had an IC50 of 1400 nM.
`CN1C(=O)NC(=O)C12c1ccccc1NC(=O)N2C` (configuration not stated): the IC50 was over 10000 nM.
Molecule `CN1C(=O)Nc2cc(Cl)c(Cl)cc2C12NC(=O)NC2=O` (configuration not stated) showed an IC50 of 74 nM.
Then `Cc1cccc2c1C1(NC(=O)NC1=O)N(C)C(=O)N2` (configuration not stated), with 400 nM; and `Cc1cc2c(cc1Cl)C1(NC(=O)NC1=O)N(C)C(=O)N2` (configuration not stated), with 30 nM; and `O=C1NC(=O)C2(N1)c1ccccc1NC(=O)N2O` (configuration not stated), with over 10000 nM.
Then `CN1C(=O)Nc2cc(Cl)c([N+](=O)[O-])cc2C12NC(=O)NC2=O` (configuration not stated), with 120 nM; and `CN1C(=O)Nc2cc(N3CCOCC3)c([N+](=O)[O-])cc2C12NC(=O)NC2=O` (configuration not stated), with 430 nM; and `CN1C(=O)Nc2ccc(N)cc2C12NC(=O)NC2=O` (configuration not stated), with over 10000 nM.
`CC(C)N1C(=O)Nc2ccccc2C12NC(=O)NC2=O` (configuration not stated): the IC50 is over 10000 nM.
Then `CN1C(=O)Nc2ccc(Cl)cc2[C@@]12NC(=O)NC2=O`, with 22 nM; and `CN1C(=O)Nc2ccc(OC(=O)c3ccccc3)cc2C12NC(=O)NC2=O` (configuration not stated), with 2000 nM.
`CN1C(=O)Nc2c([N+](=O)[O-])cc(Cl)cc2C12NC(=O)NC2=O` (configuration not stated) came in with a half-maximal inhibitory concentration (IC50) of 46 nM.
The molecule `CN1C(=O)Nc2ccccc2C12NC(=S)NC2=O` (configuration not stated) registered an IC50 of over 10000 nM.
As for `CN1C(=O)Nc2cc3c(cc2C12NC(=O)NC2=O)OCO3` (configuration not stated), half-maximal inhibition (IC50) was put at 1800 nM.
The molecule `COc1ccc2c(c1)NC(=O)N(C)C21NC(=O)NC1=O` (configuration not stated) had an IC50 of 360 nM.
As for `NN1C(=O)Nc2ccccc2C12NC(=O)NC2=O` (configuration not stated), the figure is 4000 nM; as for `CN1C(=O)Nc2ccccc2C12SC(N)=NC2=O` (configuration not stated), over 10000 nM.
`CN1C(=O)Nc2ccc(O)cc2C12NC(=O)NC2=O` (configuration not stated): the half-maximal inhibitory concentration (IC50) is over 10000 nM.
Take `CN1C(=O)Nc2ccc([N+](=O)[O-])cc2C12NC(=O)NC2=O` (configuration not stated): the IC50 was determined as 73 nM.
`CCCCN1C(=O)Nc2ccccc2C12NC(=O)NC2=O` (configuration not stated): the IC50 is over 10000 nM.
Then `O=C1NC(=O)C2(N1)c1ccccc1NC(=O)N2Cc1ccccc1` (configuration not stated), with over 10000 nM; and `CN1C(=O)NC2(C1=O)c1ccccc1NC(=O)N2C` (configuration not stated), with over 10000 nM.
For the molecule `CN1C(=O)Nc2ccc(Cl)cc2[C@]12NC(=O)NC2=O`, 770 nM corresponded to half-maximal inhibition (IC50). This lies in the sub-micromolar range.
Take `CN1C(=O)Nc2c(cc(F)c(F)c2F)C12NC(=O)NC2=O` (configuration not stated): the IC50 came to 140 nM.
As for `CN1C(=O)Nc2ccc(Cl)cc2C12NC(=O)NC2=O` (configuration not stated), the figure is 56 nM; as for `CN1C(=O)Nc2cccc(Cl)c2C12NC(=O)NC2=O` (configuration not stated), 860 nM.
